pIC50: −log10 of the molar value.
Key:
[1] = system: 22Rv1; assay: In vitro proliferation, larger panel (Example 14); type: cell-based; settings: Homo sapiens, Table III
Excerpt: Results are depicted in Table III.

[2] = target: T1, wild type AR (AR-LBD) (Rattus norvegicus, UniProt P15207); assay: Polar Screen fluorescence polarization competition assay; type: binding
T1 construct: purchased Life Technologies
Procedure: Briefly, the AR is added to a fluorescent androgen ligand (Fluormone™ AL Green) to form an AR-LBD complex. Competitors displace the fluorescent Fluormone™ AL Green ligand from the AR-LBD causing the fluorescent ligand to tumble rapidly during its fluorescence lifetime, resulting in a low polarization value. Non competitors will not displace the fluorescent ligand from the complex, so the polarization value remains high. The shift in polarization value in the presence of test compounds is used to determine relative affinity of test compounds for AR-LBD.

[3] = target: T2, glucocorticoid receptor (GR) (Homo sapiens, UniProt P04150); assay: GR reporter antagonist assay (inhibition of Dexamethasone-induced luminescence); type: cell-based; settings: inhibition of Dex-induced luminescence
T2 construct: endogenous in cells; host or cells: human kidney epithelial cells
T2 sequence (P04150 1-777): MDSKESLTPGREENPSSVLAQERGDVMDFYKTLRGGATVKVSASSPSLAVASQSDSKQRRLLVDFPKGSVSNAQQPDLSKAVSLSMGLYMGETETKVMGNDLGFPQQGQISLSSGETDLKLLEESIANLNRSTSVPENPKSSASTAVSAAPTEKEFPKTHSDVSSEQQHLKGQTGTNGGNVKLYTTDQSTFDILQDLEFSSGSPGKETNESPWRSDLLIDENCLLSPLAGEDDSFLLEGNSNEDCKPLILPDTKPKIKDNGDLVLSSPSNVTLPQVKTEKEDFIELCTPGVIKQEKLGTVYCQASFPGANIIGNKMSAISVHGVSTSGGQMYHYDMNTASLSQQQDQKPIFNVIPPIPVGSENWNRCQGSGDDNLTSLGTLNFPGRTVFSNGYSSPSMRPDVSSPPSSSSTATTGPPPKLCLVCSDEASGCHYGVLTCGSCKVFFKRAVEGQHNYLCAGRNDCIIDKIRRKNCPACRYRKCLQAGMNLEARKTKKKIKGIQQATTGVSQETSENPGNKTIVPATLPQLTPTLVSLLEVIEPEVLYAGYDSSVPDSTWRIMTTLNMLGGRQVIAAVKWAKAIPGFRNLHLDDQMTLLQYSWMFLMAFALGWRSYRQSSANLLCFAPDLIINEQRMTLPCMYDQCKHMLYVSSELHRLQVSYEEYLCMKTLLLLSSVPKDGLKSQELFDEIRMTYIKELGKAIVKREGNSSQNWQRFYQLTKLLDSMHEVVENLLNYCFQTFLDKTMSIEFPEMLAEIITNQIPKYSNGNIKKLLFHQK
Procedure: (§1) The androgen and glucocorticoid hormones elicit divergent and often opposing effects in cells, tissues, and animals. […] CB-03-06 GR antagonist and agonist activities were tested on an in vitro assay. Briefly, human kidney epithelial cells were transfected with DNA construct containing GR binding sites linked to luminescent based reporter molecule. After 24 hours, cells were treated under antagonist or agonist modes. After an additional 24 hours, luminescence which is proportional to GR agonist transcriptional activity was quantitated.
Antagonist Assay was based on inhibition of luminescence induced by Dexamethasone (Dex).
The antagonist activity of CB-03-06 was compared to a known GR antagonist, Mifepristone (also called RU486) as shown in FIG. 7.

[4] = target: T2, glucocorticoid receptor (GR); assay: GR reporter agonist assay (induction of luminescence); type: cell-based; settings: agonist mode
Procedure: as §1
Agonist Assay—was based on induction of luminescence by CB-03-06
The agonist activity of CB-03-06 was compared to a RU486 which is known to not have agonist activity.

[5] = system: MiaPaca2; assay: Annexin V / propidium iodide apoptosis flow cytometry; type: cell-based; settings: 24 hours, control 12%
Procedure: CB-03-06 was evaluated to determine if the mechanism of cytotoxicity on cancer cell lines was mediated by apoptosis and cell cycle arrest. Cancer cell lines were seeded in 6-well flat bottom plates. After 24 hours, test compounds or DMSO vehicle (negative control) were added. After an additional 24 hours, cells were scraped and stained with fluorescein conjugated Annexin V and propidium iodide, and analyzed by flow cytometry.

[6] = system: caspases 8, 9, 3/7 in MiaPaca2 cells; assay: Caspase 8, 9 and 3/7 activity; type: cell-based
[7] = system: caspases 8, 9, 3/7 in LNCaP cells; assay: Caspase 8, 9 and 3/7 activity; type: cell-based; settings: 24 hour incubation, Enzalutamide positive control
Procedure: After 24 hours, test compounds were added to cells. Gemcitabine (a known pancreatic cancer chemotherapeutic agent) and DMSO were used as positive and negative controls, respectively. There were three incubation time points: 8 hours, 24 hours, and 48 hours. After each time point, cells were lysed in multiplex buffer containing the caspase 3/7 substrate combined with either caspase 8 or caspase 9 reagents, which contain stable luciferase in proprietary buffers. The lysates were transferred to white opaque 96-well plates before measuring luminescence on a Tecan Safire instrument. Parallel plates treated identically were used to determine cell viability. All caspase activities were corrected for the number of viable cells.
The same assay was repeated using LNCaP prostate cancer cell lines. […] The results are shown in FIG. 12 after 24 hour incubation when the caspase activities peaked.

[8] = In vitro metabolism in plasma; type: in vitro ADME; settings: human plasma, 37 C, through 8 hours
Procedure: (§2) To obtain some insight on the metabolism of CB-03-06 in human and rat plasma, a specific assay was designed. Briefly, the compound was incubated at different time points in human and rat plasma at 37 C. After incubation, the samples were tested for presence of the intact compound by liquid chromatography.

[9] = In vitro metabolism in plasma; type: in vitro ADME, rat; settings: 37 C
Procedure: as §2

[10] = system: LNCaP prostate cancer xenograft; assay: Human prostate cancer xenograft in nude mice, oral dosing; type: in vivo; settings: oral 100 mg/Kg daily 28 days
Procedure: 3×10^6 LNCaP cells suspended in matrigel were subcutaneously injected (on the right flank) into 6 week old male athymic nude mice. Tumors were measured as described above. Treatment with CB-03-06 and controls compounds was initiated after the tumor had reached 50 mm^3. […] Oral dosing was daily (100 mg/Kg in 200 microL/mouse) for 28 consecutive days. Results were plotted as average change in tumor volume relative to the start of treatment.

[11] = system: PSA secretion from LNCaP cells; assay: PSA secretion Elisa; type: cell-based; settings: Homo sapiens, 48 h, read-out: inhibition of PSA secretion IC50
Procedure: (§3) Prostate-specific antigen, or PSA, is a protein produced by cells of the prostate gland. The PSA test measures the level of PSA in a person's blood. The blood level of PSA is often elevated in men with prostate cancer and it used as surrogate marker to test prostate cancer progression in human population. […] LNCaP cells were seeded in 96-well flat bottom culture plates in media containing charcoal stripped serum with or without 10 nM DHT. […] After 48 hours incubation with test compounds, supernatants were harvested and tested with an Elisa assay for PSA and the same cells were lysed for cell viability assessment.

[12] = system: LNCaP; assay: Cell viability of the cells of the PSA assay; type: cell-based; settings: Homo sapiens, 48 h, read-out: cell viability IC50
Procedure: as §3

T1 sequence (P15207 651-882 limits assumed): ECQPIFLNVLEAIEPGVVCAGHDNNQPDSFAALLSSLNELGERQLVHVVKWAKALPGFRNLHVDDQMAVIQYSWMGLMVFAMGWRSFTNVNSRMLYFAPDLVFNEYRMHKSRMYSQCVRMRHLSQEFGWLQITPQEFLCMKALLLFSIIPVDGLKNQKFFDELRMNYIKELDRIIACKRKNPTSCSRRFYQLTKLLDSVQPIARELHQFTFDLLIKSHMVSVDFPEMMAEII

With C[C@]12CCC(=O)C=C1CC[C@@H]1[C@@H]2CC[C@@]2(C)[C@H]1CC[C@]2(OC(=O)c1ccccc1)C(=O)CO [CB-03-06, cortexolone 17α-benzoate] the pIC50 [1] was 4.60, the pIC50 [2] was 5.59 and the “GR antagonist potency, times less than RU486” value [3] was 100 times. The “GR agonist activity plateau” value [4] was 45 % of Dex maximum, the “concentration activating the GR to the same extent” value ([4]; CB-03-06 compared with Dex) was 14 nM and the “cells in apoptosis (early and late)” value [5] was 56 % cells. The “caspase 8 and 9 activity, increase compared to the control” value ([6]; 20 or 50 μM, evident after 8 hours) was at most 7 fold, the “Caspase 3/7 induction” value ([6]; 48 hour incubation) was “induced by CB-03-06 at high level” and the “Initiator (8 and 9) and Effector (3/7) caspase activities” value [7] was “induced Initiator (8 and 9,) and Effector (3/7) caspase activities better than Enzalutamide”. The “intact compound, % of initial concentration” value [8] was “over 90%”, the “degradation in rat compared to human plasma” value [9] was “degrades faster in rat compared to human plasma” and the “intact compound, % of initial concentration” value ([9]; rat plasma, through 8 hours) was “over 90%”. The “anti-tumor activity, change in tumor volume” value [10] was “strong anti-tumor activity against prostate cancer”, the pIC50 [11] was 5.40 and the pIC50 [12] was 4.92.

From US10231980B2, “Cortexolone 17alpha-benzoate for use in the treatment of tumours” (COSMO TECHNOLOGIES LTD., priority 2014, dated 2019)
